# Assays:
# Test in all cases: biochemical
# Parameters in all cases: DiscoverX KINOMEscan scanMAX competition binding panel, single concentration, percent of control; remaining binding: dose or concentration left out as unconfirmed
# Settings in all cases: KINOMEscan binding, percent of control; read-out: Table S4_SCANMAX REPORT - related to Fig. 1 / Percent Control
# [1] = target: LATS1 (Homo sapiens, UniProt O95835)
# [2] = target: NEK1 (Homo sapiens, UniProt Q96PY6)
# [3] = target: T1, MEK2 (Homo sapiens, UniProt P36507)
# T1 construct: gene MAP2K2
# T1 sequence (P36507 whole entry): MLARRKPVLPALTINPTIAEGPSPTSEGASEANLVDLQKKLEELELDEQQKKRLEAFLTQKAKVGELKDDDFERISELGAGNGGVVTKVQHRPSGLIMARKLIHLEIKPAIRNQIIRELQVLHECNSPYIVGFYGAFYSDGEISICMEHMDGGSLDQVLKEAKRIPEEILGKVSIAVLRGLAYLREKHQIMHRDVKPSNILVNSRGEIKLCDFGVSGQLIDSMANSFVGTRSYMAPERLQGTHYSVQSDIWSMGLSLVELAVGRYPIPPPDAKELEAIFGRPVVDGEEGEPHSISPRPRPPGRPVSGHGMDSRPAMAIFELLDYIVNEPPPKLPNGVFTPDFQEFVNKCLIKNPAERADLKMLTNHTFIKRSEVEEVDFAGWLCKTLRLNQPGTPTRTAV
# [4] = target: ABL2 (Homo sapiens, UniProt P42684)
# [5] = target: CHEK1 (Homo sapiens, UniProt O14757)
# Chain of CHEK1 (O14757 whole entry): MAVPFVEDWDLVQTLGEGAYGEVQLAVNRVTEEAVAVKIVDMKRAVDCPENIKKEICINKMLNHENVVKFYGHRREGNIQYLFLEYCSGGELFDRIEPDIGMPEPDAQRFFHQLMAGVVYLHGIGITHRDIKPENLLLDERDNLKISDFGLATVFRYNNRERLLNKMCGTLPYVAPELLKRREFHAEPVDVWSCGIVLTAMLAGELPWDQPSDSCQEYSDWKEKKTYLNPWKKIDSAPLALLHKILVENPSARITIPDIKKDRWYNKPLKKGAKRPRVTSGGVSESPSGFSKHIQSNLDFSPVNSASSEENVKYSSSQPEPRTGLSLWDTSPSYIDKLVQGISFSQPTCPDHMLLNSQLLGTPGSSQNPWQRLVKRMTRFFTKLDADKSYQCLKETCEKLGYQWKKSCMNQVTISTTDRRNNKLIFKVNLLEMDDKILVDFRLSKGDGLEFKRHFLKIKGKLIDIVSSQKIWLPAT
# [6] = target: PRKD1 (Homo sapiens, UniProt Q15139)
# [7] = target: T2, OSR1 (Homo sapiens, UniProt O95747)
# T2 construct: gene OXSR1
# [8] = target: TSSK3 (Homo sapiens, UniProt Q96PN8)
# [9] = target: SGK2 (Homo sapiens, UniProt Q9HBY8)
# [10] = target: FYN (Homo sapiens, UniProt P06241)
# Chain of FYN (P06241 whole entry): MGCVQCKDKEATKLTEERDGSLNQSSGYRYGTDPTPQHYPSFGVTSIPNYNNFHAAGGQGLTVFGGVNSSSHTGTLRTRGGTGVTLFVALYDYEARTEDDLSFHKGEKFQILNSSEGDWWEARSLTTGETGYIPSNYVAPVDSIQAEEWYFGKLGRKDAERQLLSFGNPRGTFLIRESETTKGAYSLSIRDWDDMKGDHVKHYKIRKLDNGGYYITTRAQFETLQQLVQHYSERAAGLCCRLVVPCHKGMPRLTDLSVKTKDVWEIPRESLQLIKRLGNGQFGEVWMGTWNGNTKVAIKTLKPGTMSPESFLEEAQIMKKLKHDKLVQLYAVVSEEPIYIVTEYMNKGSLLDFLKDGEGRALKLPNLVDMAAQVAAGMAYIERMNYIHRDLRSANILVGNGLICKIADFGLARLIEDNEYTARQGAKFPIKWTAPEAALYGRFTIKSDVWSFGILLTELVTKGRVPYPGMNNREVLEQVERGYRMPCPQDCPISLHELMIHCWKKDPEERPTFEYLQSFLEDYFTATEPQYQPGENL
# [11] = target: CAMK1G (Homo sapiens, UniProt Q96NX5)
# [12] = target: T3, DCAMKL2 (Homo sapiens, UniProt Q8N568)
# T3 construct: gene DCLK2
# [13] = target: T4, YANK3 (Homo sapiens, UniProt Q86UX6)
# T4 construct: gene STK32C
# T4 sequence (Q86UX6 whole entry): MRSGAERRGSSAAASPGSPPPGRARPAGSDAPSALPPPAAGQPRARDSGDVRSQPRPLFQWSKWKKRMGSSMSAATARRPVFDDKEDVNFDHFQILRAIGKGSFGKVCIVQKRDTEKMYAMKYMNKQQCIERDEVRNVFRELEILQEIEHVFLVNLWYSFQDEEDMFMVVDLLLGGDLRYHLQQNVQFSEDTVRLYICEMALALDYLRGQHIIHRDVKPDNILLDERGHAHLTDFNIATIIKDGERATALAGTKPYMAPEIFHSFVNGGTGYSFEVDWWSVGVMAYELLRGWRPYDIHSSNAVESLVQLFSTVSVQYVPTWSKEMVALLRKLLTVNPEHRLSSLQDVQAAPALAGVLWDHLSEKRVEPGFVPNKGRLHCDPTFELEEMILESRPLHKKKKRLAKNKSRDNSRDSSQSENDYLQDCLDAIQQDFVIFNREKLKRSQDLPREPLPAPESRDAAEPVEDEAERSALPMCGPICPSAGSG
# [14] = target: BMX (Homo sapiens, UniProt P51813)
# [15] = target: CAMK2G (Homo sapiens, UniProt Q13555)
# Chain of CAMK2G (Q13555 whole entry): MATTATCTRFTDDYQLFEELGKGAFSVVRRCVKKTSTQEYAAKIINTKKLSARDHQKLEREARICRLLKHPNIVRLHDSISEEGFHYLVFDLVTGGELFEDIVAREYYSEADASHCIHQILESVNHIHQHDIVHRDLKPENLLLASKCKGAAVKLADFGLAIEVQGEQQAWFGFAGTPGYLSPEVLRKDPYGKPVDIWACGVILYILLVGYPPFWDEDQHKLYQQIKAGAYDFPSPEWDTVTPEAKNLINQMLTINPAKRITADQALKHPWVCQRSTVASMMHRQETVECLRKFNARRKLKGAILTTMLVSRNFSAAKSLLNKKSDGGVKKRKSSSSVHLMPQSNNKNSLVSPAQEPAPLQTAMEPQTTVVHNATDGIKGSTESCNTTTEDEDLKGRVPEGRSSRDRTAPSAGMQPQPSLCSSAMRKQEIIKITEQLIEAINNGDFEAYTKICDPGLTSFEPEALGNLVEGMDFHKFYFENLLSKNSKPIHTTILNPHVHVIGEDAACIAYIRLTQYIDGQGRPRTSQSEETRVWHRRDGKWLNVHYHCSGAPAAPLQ
# [16] = target: CLK4 (Homo sapiens, UniProt Q9HAZ1)
# Chain of CLK4 (Q9HAZ1 whole entry): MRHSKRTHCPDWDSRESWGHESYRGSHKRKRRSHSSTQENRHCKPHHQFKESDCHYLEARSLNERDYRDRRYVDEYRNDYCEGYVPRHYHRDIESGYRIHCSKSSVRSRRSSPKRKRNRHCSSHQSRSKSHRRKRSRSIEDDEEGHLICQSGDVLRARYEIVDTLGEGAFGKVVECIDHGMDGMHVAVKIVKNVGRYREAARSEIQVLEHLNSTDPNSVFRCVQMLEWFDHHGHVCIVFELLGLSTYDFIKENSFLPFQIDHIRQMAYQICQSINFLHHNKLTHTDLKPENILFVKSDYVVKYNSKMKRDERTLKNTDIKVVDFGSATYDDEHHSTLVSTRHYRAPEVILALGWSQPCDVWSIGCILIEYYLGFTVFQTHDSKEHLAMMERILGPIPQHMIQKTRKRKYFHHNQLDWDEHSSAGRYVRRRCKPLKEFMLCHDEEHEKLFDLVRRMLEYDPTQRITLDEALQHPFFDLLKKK
# [17] = target: NEK7 (Homo sapiens, UniProt Q8TDX7)
# Chain of NEK7 (Q8TDX7 whole entry): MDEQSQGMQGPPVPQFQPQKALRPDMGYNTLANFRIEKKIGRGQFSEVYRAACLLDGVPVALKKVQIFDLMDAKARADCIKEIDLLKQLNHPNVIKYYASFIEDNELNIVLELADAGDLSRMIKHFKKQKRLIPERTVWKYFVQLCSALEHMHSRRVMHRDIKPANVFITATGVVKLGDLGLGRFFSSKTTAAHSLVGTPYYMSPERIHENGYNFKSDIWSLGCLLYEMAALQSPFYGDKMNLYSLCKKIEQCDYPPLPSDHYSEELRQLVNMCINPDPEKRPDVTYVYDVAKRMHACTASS
# [18] = target: PIM3 (Homo sapiens, UniProt Q86V86)
# [19] = target: T5, PYK2 (Homo sapiens, UniProt Q14289)
# T5 construct: gene PTK2B
# Chain of NEK1 (Q96PY6 whole entry): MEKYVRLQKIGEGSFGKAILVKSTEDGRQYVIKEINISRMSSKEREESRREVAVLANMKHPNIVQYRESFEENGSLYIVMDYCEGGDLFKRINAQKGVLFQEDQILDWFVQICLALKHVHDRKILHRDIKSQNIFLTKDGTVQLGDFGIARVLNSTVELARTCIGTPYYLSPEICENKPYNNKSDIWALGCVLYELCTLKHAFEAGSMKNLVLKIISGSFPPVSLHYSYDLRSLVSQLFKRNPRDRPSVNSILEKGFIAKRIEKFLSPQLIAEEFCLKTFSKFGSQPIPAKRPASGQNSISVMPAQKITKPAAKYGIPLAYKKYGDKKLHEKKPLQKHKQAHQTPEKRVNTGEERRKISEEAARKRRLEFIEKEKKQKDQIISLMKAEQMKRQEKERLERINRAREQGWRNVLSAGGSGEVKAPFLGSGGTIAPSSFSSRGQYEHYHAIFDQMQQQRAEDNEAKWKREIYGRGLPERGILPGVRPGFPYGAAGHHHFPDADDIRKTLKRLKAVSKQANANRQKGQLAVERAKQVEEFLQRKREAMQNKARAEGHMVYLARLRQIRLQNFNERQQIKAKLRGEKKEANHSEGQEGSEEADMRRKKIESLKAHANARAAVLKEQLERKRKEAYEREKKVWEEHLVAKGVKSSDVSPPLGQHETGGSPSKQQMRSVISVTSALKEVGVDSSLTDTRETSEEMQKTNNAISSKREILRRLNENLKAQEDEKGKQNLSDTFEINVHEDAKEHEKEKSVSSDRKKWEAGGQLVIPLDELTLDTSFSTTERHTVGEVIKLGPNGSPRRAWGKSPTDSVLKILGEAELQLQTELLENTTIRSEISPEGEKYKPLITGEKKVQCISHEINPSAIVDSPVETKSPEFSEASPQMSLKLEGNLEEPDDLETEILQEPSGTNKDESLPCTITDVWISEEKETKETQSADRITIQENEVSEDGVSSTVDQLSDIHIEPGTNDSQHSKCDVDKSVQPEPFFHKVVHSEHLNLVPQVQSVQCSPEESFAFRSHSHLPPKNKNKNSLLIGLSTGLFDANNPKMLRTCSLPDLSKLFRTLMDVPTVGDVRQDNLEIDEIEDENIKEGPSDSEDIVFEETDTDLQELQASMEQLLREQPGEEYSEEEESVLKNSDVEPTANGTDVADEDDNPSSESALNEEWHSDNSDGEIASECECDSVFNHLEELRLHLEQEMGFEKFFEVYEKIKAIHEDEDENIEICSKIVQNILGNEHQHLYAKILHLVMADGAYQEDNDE
compound,measurement,setting,value
c1ccc2c(c1)Sc1ccccc1N2CCN1CCOCC1 [J54],remaining binding,[1],81%
same,remaining binding,[2],95%
same,remaining binding,[3],100%
same,remaining binding,[4],100%
same,remaining binding,[5],100%
same,remaining binding,[6],97%
same,remaining binding,[7],100%
same,remaining binding,[8],87%
same,remaining binding,[9],90%
same,remaining binding,[10],100%
same,remaining binding,[11],100%
same,remaining binding,[12],100%
same,remaining binding,[13],100%
same,remaining binding,[14],100%
same,remaining binding,[15],100%
same,remaining binding,[16],100%
same,remaining binding,[17],100%
same,remaining binding,[18],47%
same,remaining binding,[19],100%
